In the NIST ThermoML archive (doi:10.1021/acs.jced.5b00613):
± gives the expanded uncertainty stated by the source.

Conditions: Liquid, Vibrating tube method

Compound: CCCCCCCCCCCCCCCC [hexadecane]
- mass density (298.15 K, 100 kPa): 770.5 ± 0.7 kg/m3
- mass density (298.15 K, 1000 kPa): 771.1 ± 0.7 kg/m3
- mass density (298.15 K, 5000 kPa): 773.6 ± 0.7 kg/m3
- mass density (298.15 K, 10000 kPa): 776.9 ± 0.7 kg/m3
- mass density (298.15 K, 20000 kPa): 782.6 ± 0.8 kg/m3
- mass density (298.15 K, 30000 kPa): 788.1 ± 0.8 kg/m3
- mass density (323.15 K, 100 kPa): 753.1 ± 0.7 kg/m3
- mass density (323.15 K, 1000 kPa): 753.9 ± 0.7 kg/m3
- mass density (323.15 K, 5000 kPa): 756.8 ± 0.7 kg/m3
- mass density (323.15 K, 10000 kPa): 760.4 ± 0.7 kg/m3
- mass density (323.15 K, 20000 kPa): 766.9 ± 0.8 kg/m3
- mass density (323.15 K, 30000 kPa): 772.9 ± 0.8 kg/m3
- mass density (323.15 K, 40000 kPa): 778.5 ± 0.8 kg/m3
- mass density (323.15 K, 50000 kPa): 783.8 ± 0.9 kg/m3
- mass density (323.15 K, 60000 kPa): 788.7 ± 0.9 kg/m3
- mass density (348.15 K, 100 kPa): 735.6 ± 0.7 kg/m3
- mass density (348.15 K, 1000 kPa): 736.5 ± 0.7 kg/m3
- mass density (348.15 K, 5000 kPa): 739.8 ± 0.7 kg/m3
- mass density (348.15 K, 10000 kPa): 743.8 ± 0.8 kg/m3
- mass density (348.15 K, 20000 kPa): 751.1 ± 0.8 kg/m3
- mass density (348.15 K, 30000 kPa): 757.8 ± 0.8 kg/m3
- mass density (348.15 K, 40000 kPa): 763.9 ± 0.9 kg/m3
- mass density (348.15 K, 50000 kPa): 769.7 ± 0.9 kg/m3
- mass density (348.15 K, 60000 kPa): 775.1 ± 0.9 kg/m3
- mass density (373.15 K, 100 kPa): 717.8 ± 5 kg/m3
- mass density (373.15 K, 1000 kPa): 719.4 ± 3 kg/m3
- mass density (373.15 K, 5000 kPa): 723.2 ± 3 kg/m3
- mass density (373.15 K, 10000 kPa): 727.7 ± 3 kg/m3
- mass density (373.15 K, 20000 kPa): 735.9 ± 3 kg/m3
- mass density (373.15 K, 30000 kPa): 743.4 ± 3 kg/m3
- mass density (373.15 K, 40000 kPa): 750.3 ± 3 kg/m3
- mass density (373.15 K, 50000 kPa): 756.5 ± 3.1 kg/m3
- mass density (373.15 K, 60000 kPa): 762.4 ± 3.1 kg/m3
- mass density (423.15 K, 100 kPa): 680.8 ± 5 kg/m3
- mass density (423.15 K, 1000 kPa): 684.1 ± 3 kg/m3
- mass density (423.15 K, 5000 kPa): 689.2 ± 3 kg/m3
- mass density (423.15 K, 10000 kPa): 695.1 ± 3 kg/m3
- mass density (423.15 K, 20000 kPa): 705.5 ± 3 kg/m3
- mass density (423.15 K, 30000 kPa): 714.7 ± 3 kg/m3
- mass density (423.15 K, 40000 kPa): 722.9 ± 3.1 kg/m3
- mass density (423.15 K, 50000 kPa): 730.4 ± 3.1 kg/m3
- mass density (423.15 K, 60000 kPa): 737.2 ± 3.1 kg/m3
- mass density (463.15 K, 100 kPa): 651.6 ± 5 kg/m3
- mass density (463.15 K, 1000 kPa): 654.5 ± 5 kg/m3
- mass density (463.15 K, 5000 kPa): 661 ± 3 kg/m3
- mass density (463.15 K, 10000 kPa): 668.5 ± 3 kg/m3
- mass density (463.15 K, 20000 kPa): 681.2 ± 3 kg/m3
- mass density (463.15 K, 30000 kPa): 692 ± 3 kg/m3
- mass density (463.15 K, 40000 kPa): 701.4 ± 3.1 kg/m3
- mass density (463.15 K, 50000 kPa): 709.8 ± 3.1 kg/m3
- mass density (463.15 K, 60000 kPa): 717.5 ± 3.1 kg/m3

Compound: CCCCCCCCCC [decane]
- mass density (278.15 K, 100 kPa): 741.6 ± 0.7 kg/m3
- mass density (278.15 K, 1000 kPa): 742.2 ± 0.7 kg/m3
- mass density (278.15 K, 5000 kPa): 745 ± 0.7 kg/m3
- mass density (278.15 K, 10000 kPa): 748.3 ± 0.7 kg/m3
- mass density (278.15 K, 20000 kPa): 754.4 ± 0.8 kg/m3
- mass density (278.15 K, 30000 kPa): 760.1 ± 0.8 kg/m3
- mass density (278.15 K, 40000 kPa): 765.4 ± 0.8 kg/m3
- mass density (278.15 K, 50000 kPa): 770.4 ± 0.9 kg/m3
- mass density (278.15 K, 60000 kPa): 775.3 ± 0.9 kg/m3
- mass density (298.15 K, 100 kPa): 726.7 ± 0.7 kg/m3
- mass density (298.15 K, 1000 kPa): 727.4 ± 0.7 kg/m3
- mass density (298.15 K, 5000 kPa): 730.5 ± 0.7 kg/m3
- mass density (298.15 K, 10000 kPa): 734.2 ± 0.7 kg/m3
- mass density (298.15 K, 20000 kPa): 740.9 ± 0.8 kg/m3
- mass density (298.15 K, 30000 kPa): 747.2 ± 0.8 kg/m3
- mass density (298.15 K, 40000 kPa): 753 ± 0.8 kg/m3
- mass density (298.15 K, 50000 kPa): 758.4 ± 0.9 kg/m3
- mass density (298.15 K, 60000 kPa): 763.7 ± 0.9 kg/m3
- mass density (323.15 K, 100 kPa): 707.4 ± 0.7 kg/m3
- mass density (323.15 K, 1000 kPa): 708.4 ± 0.7 kg/m3
- mass density (323.15 K, 5000 kPa): 711.9 ± 0.7 kg/m3
- mass density (323.15 K, 10000 kPa): 716.2 ± 0.8 kg/m3
- mass density (323.15 K, 20000 kPa): 724 ± 0.8 kg/m3
- mass density (323.15 K, 30000 kPa): 731.1 ± 0.8 kg/m3
- mass density (323.15 K, 40000 kPa): 737.5 ± 0.9 kg/m3
- mass density (323.15 K, 50000 kPa): 743.5 ± 0.9 kg/m3
- mass density (323.15 K, 60000 kPa): 749.2 ± 1 kg/m3
- mass density (348.15 K, 100 kPa): 687.6 ± 0.8 kg/m3
- mass density (348.15 K, 1000 kPa): 688.6 ± 0.7 kg/m3
- mass density (348.15 K, 5000 kPa): 692.8 ± 0.7 kg/m3
- mass density (348.15 K, 10000 kPa): 697.7 ± 0.8 kg/m3
- mass density (348.15 K, 20000 kPa): 706.7 ± 0.8 kg/m3
- mass density (348.15 K, 30000 kPa): 714.6 ± 0.8 kg/m3
- mass density (348.15 K, 40000 kPa): 721.8 ± 0.9 kg/m3
- mass density (348.15 K, 50000 kPa): 728.4 ± 0.9 kg/m3
- mass density (348.15 K, 60000 kPa): 734.6 ± 1 kg/m3
- mass density (373.15 K, 100 kPa): 667.1 ± 5 kg/m3
- mass density (373.15 K, 1000 kPa): 668.8 ± 3 kg/m3
- mass density (373.15 K, 5000 kPa): 673.8 ± 3 kg/m3
- mass density (373.15 K, 10000 kPa): 679.6 ± 3 kg/m3
- mass density (373.15 K, 20000 kPa): 689.8 ± 3 kg/m3
- mass density (373.15 K, 30000 kPa): 698.8 ± 3 kg/m3
- mass density (373.15 K, 40000 kPa): 706.8 ± 3.1 kg/m3
- mass density (373.15 K, 50000 kPa): 714.1 ± 3.1 kg/m3
- mass density (373.15 K, 60000 kPa): 720.8 ± 3.1 kg/m3
- mass density (423.15 K, 100 kPa): 624.8 ± 5 kg/m3
- mass density (423.15 K, 1000 kPa): 627.2 ± 3 kg/m3
- mass density (423.15 K, 5000 kPa): 634.5 ± 3 kg/m3
- mass density (423.15 K, 10000 kPa): 642.4 ± 3 kg/m3
- mass density (423.15 K, 20000 kPa): 655.8 ± 3 kg/m3
- mass density (423.15 K, 30000 kPa): 667.1 ± 3 kg/m3
- mass density (423.15 K, 40000 kPa): 677 ± 3.1 kg/m3
- mass density (423.15 K, 50000 kPa): 685.9 ± 3.1 kg/m3
- mass density (423.15 K, 60000 kPa): 693.8 ± 3.1 kg/m3
- mass density (463.15 K, 1000 kPa): 590.4 ± 5 kg/m3
- mass density (463.15 K, 5000 kPa): 600.3 ± 3 kg/m3
- mass density (463.15 K, 10000 kPa): 610.8 ± 3 kg/m3
- mass density (463.15 K, 20000 kPa): 627.8 ± 3 kg/m3
- mass density (463.15 K, 30000 kPa): 641.4 ± 3.1 kg/m3
- mass density (463.15 K, 40000 kPa): 653.1 ± 3.1 kg/m3
- mass density (463.15 K, 50000 kPa): 663.3 ± 3.1 kg/m3
- mass density (463.15 K, 60000 kPa): 672.1 ± 3.1 kg/m3
